# Measurements reported in publication PMC11432330, “Novel Drug-like HsrA Inhibitors Exhibit Potent Narrow-Spectrum Antimicrobial Activities against Helicobacter pylori” (International Journal of Molecular Sciences, 2024).
# Entries after “also recorded” stand apart in the source; their conditions may differ. Like-named read-outs stand apart in the source and are kept apart here.
# How the values were obtained:
# HsrA = HsrA (Helicobacter pylori, UniProt O25684); assay: Isothermal titration calorimetry (ITC) with HsrA; format: binding; conditions: for ΔG: absolute error 0.1; for ΔH: absolute error 0.4
# Procedure: Molecular interactions of the selected ligands with proteins HsrA or CosR were studied by isothermal titration calorimetry (ITC), as previously described. Titrations were assessed in a high-sensitivity MicroCal Auto-iTC200 calorimeter (Malvern Panalytical, Malvern, UK). Experiments were carried out at 25 °C in freshly prepared buffer containing 50 mM Tris-HCl [pH 8], 150 mM NaCl, 10% glycerol, and 1% DMSO. A 20 µM solution of protein was located in the calorimetric cell. Then, a sequence of 19 injections of 2 µL volume each with a 200 µM solution of the corresponding ligand was programmed with a time spacing of 150 s, a stirring speed of 750 rpm, and a reference power of 10 µcal/s in the sample cell. Thermodynamic properties such as binding stoichiometry, dissociation constants, and binding enthalpies were calculated by nonlinear least-squares regression data analysis using Origin 7.0 software.
# response regulator HsrA = assay: EMSA: inhibition of in vitro DNA binding activity of HsrA to promoter PporGDAB; format: biochemical, Helicobacter pylori; conditions: 6 μM HsrA, 120 ng PporGDAB, ligand 0.1-2 mM
# Procedure: The DNA binding activities of recombinant HsrA and CosR were assessed in vitro by electrophoretic mobility shift assays (EMSAs). A 300-bp promoter region of the H. pylori 26695 operon porGDAB was used as the target sequence of HsrA in all EMSA experiments. Likewise, a 420-bp sequence of the C. jejuni sodB promoter (ATCC 33560) was used as the target DNA of CosR [90]. The oligonucleotides used for the synthesis of these promoter regions are described in Supplementary Table S4. Response regulators HsrA (6 μM) or CosR (700 nM) were mixed with 120 ng of their target promoters in a reaction buffer of 10 mM bis-Tris (pH 7.5), 40 mM KCl, 100 mg/L BSA, 1 mM DTT, and 5% glycerol. For the in vitro inhibition analyses, mixtures of target DNA and response regulator were exposed to 2, 1, 0.5, and 0.1 mM of each compound of interest, incubated at room temperature for 20 min, and then separated on a 6% non-denaturing electrophoresis. DMSO instead of inhibitors was included as a vehicle control, while an internal sequence of the Anabaena sp. pkn22 gene was used as the non-specific competitor in all assays. For DNA-protein binding visualization, gels were stained with the SYBR Safe DNA gel stain (Invitrogen) and analyzed with a Gel Doc 2000 Image Analyzer (Bio-Rad).
# E. coli ATCC 25922 = assay: MIC/MBC according to EUCAST guidelines; format: cell-based; conditions: Escherichia coli, ATCC25922
# Procedure: (§1) The antimicrobial activities of the selected compounds against several Gram-negative and Gran-positive representative species of normal human microbiota were determined according to the EUCAST guidelines. Briefly, standardized inoculums (0.5 McFarland) were freshly prepared from overnight Mueller–Hinton agar plates of reference strains E. coli ATCC 25922, K. pneumonia ATCC 700603, E. faecalis ATCC 29212, S. aureus ATCC 29213, S. epidermidis ATCC 12228, and S. agalactiae ATCC 12386. Next, bacterial suspensions adjusted to 5 × 10^5 CFU/mL in Mueller–Hinton broth were exposed to a range of concentrations from 64 to 0.031 mg/L of the selected compounds. DMSO and conventional antibiotics LVX and AMP were included as controls. […] Experiments were performed twice in triplicate.
# S. agalactiae ATCC 12386 = assay: MIC/MBC according to EUCAST guidelines; format: cell-based; conditions: Streptococcus agalactiae, ATCC12386
# Procedure: as §1
# [1] = tested on: S. epidermidis ATCC 12228; assay: MIC/MBC according to EUCAST guidelines; format: cell-based; conditions: Staphylococcus epidermidis, ATCC12228
# Procedure: as §1
# S. aureus ATCC 29213 = assay: MIC/MBC according to EUCAST guidelines; format: cell-based; conditions: Staphylococcus aureus, ATCC29213
# Procedure: as §1
# E. faecalis ATCC 29212 = assay: MIC/MBC according to EUCAST guidelines; format: cell-based; conditions: Enterococcus faecalis, ATCC29212
# Procedure: as §1
# [2] = tested on: H. pylori strain ATCC 700392; assay: Time-kill kinetic assay; format: cell-based, Helicobacter pylori; conditions: 4 × MIC, 10^4 CFU/mL
# Procedure: Time-kill kinetics of selected HsrA inhibitors were carried out as previously described, with slight modifications. Briefly, fresh grown cells of H. pylori strain ATCC 700392 were resuspended in BHI + FBS at 1.0 × 10^4 CFU/mL and exposed to 4 × MIC of each compound. Bacteria exposed to DMSO (vehicle) instead of the HsrA inhibitors were included as a control. All cultures were incubated at 37 °C under microaerobic conditions, and aliquots were taken after 0, 2, 4, 8, and 24 h of exposure for CFU determination. Experiments were performed twice in triplicate. Results were presented as log10 CFU/mL versus hours of exposure. Differences in H. pylori survival were subjected to statistical analysis by using the Mann–Whitney U test.
# H. pylori = assay: MIC across the four H. pylori strains tested (text summaries); format: cell-based, Helicobacter pylori; conditions: for MIC: Helicobacter pylori
# Procedure: The antimicrobial activity of the HsrA inhibitors was evaluated by the determination of the minimal inhibitory concentration (MIC) against four different strains of H. pylori: ATCC 700392 (aka 26695), ATCC 43504 (MTZ-resistant reference strain), ATCC 700684 (CLR-resistant reference strain), and Donostia 2 (LVX-resistant clinical isolate). The MICs were determined by the broth microdilution method, as previously described. Briefly, H. pylori strains were grown in blood agar at 37 °C for 72 h under microaerobic conditions. Fresh inoculums adjusted at OD600 = 0.01 [~10^6 colony forming units (CFU) per mL] in BHI broth supplemented with 4% fetal bovine serum (BHI + FBS) were prepared and immediately exposed to final concentrations between 64 and 0.031 mg/L of each compound of interest. The compound solvent (DMSO) as well as conventional antibiotics (MTZ, CLR, LVX) were included as controls. […] Each experiment was performed twice in triplicate. The MIC and MBC values of the selected compounds against C. jejuni ATCC 33560 were determined by using the same method and culture conditions described for the H. pylori strains.
# [3] = four strains incl. CLR-, MTZ- and LVX-resistant, read-out: MIC against all H. pylori strains tested
# [4] = ITC, 25 °C, pH 8, relative error 15%, read-out: Kd
# Chain of HsrA (O25684 entry or part of it): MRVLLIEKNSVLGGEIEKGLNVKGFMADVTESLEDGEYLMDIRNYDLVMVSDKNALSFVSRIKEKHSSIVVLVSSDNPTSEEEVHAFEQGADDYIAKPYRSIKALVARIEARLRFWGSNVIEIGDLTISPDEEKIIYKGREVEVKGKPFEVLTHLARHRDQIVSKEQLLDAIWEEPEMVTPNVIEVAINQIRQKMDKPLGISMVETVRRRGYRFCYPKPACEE
SMILES,"n (stoichiometry) (HsrA; ITC, 25 °C, pH 8)","ΔG (HsrA; ITC, 25 °C)","ΔH (HsrA; ITC, 25 °C)",Inhibition of in vitro DNA binding activity of HsrA (EMSA) (response regulator HsrA),MBC (E. coli ATCC 25922),MIC (E. coli ATCC 25922),MBC (S. agalactiae ATCC 12386),MIC (S. agalactiae ATCC 12386),MBC [1],MIC [1],MBC (S. aureus ATCC 29213),MIC (S. aureus ATCC 29213),MBC (E. faecalis ATCC 29212),MIC (E. faecalis ATCC 29212),Exposure time after which 10^4 H. pylori cells were completely killed [2],MIC (H. pylori; [3]),Kd (HsrA; [4]),also measured
CSc1cccc(NC(=S)NCCNc2c([N+](=O)[O-])cc(C(F)(F)F)cc2[N+](=O)[O-])c1 [Ligand IV],0.9,–7.4 kcal/mol,–1.6 kcal/mol,appreciably stronger; also recorded: noticeably inhibited,> 64 µg/mL,> 64 µg/mL,> 64 µg/mL,> 64 µg/mL,> 64 µg/mL,> 64 µg/mL,> 64 µg/mL,> 64 µg/mL,> 64 µg/mL,> 64 µg/mL,4 h,0.031 to 4 µg/mL,,Kd (HsrA): 3.9 µM
N#Cc1cnn(-c2ccc(C(F)(F)F)cc2[N+](=O)[O-])c1N [Ligand I],1.0,–6.7 kcal/mol,–1.2 kcal/mol,noticeably inhibited,> 64 µg/mL,> 64 µg/mL,64 µg/mL,32 µg/mL,> 64 µg/mL,> 64 µg/mL,> 64 µg/mL,> 64 µg/mL,> 64 µg/mL,> 64 µg/mL,8 h,0.031 to 4 µg/mL,13 µM,
"NC(=NOC(=O)Nc1ccc(Cl)cc1)c1csc([N+](=O)[O-])c1 [Ligand V, N′-{[(4-chloroanilino)carbonyl]}oxy-5-nitrothiophene-3-carboximidamide]",1.0,–6.7 kcal/mol,–1.9 kcal/mol,noticeably inhibited,> 64 µg/mL,> 64 µg/mL,> 64 µg/mL,> 64 µg/mL,> 64 µg/mL,> 64 µg/mL,> 64 µg/mL,> 64 µg/mL,> 64 µg/mL,> 64 µg/mL,2 h,0.031 to 4 µg/mL,13 µM,"Affinity to HsrA relative to ligand XII (HsrA; ITC): > 3 fold; MIC (H. pylori; read-out: MIC against all H. pylori strains tested, four strains incl. CLR-, MTZ- and LVX-resistant): 0.031 to 0.125 µg/mL; Antimicrobial potency relative to ligand XII (H. pylori; same H. pylori strains): at least 4 fold; Antimicrobial potency relative to metronidazole (H. pylori; same H. pylori strains): more than 10 fold"
OC1(C(F)(F)F)CC(c2ccc3c(c2)Nc2ccccc2S3)=NN1 (stereo not shown) [Ligand VIII],0.9,–6.8 kcal/mol,0.8 kcal/mol,appreciably stronger; also recorded: noticeably inhibited,> 64 µg/mL,> 64 µg/mL,32 µg/mL,16 µg/mL,4 µg/mL,4 µg/mL,32 µg/mL,16 µg/mL,64 µg/mL,64 µg/mL,2 h,0.031 to 4 µg/mL,10 µM,
N#C/C(=C\C=C\c1ccccc1)c1nc2ccccc2[nH]1 [Ligand XII],1.0,–6.0 kcal/mol,0.8 kcal/mol,noticeably inhibited,> 64 µg/mL,> 64 µg/mL,> 64 µg/mL,> 64 µg/mL,> 64 µg/mL,> 64 µg/mL,> 64 µg/mL,> 64 µg/mL,> 64 µg/mL,> 64 µg/mL,4 h,0.031 to 4 µg/mL,43 µM,
CSc1cccc(Nc2nc(C(C)(C)C)cs2)c1 [Ligand XI],1.1,–5.9 kcal/mol,–3.1 kcal/mol,noticeably inhibited,> 64 µg/mL,> 64 µg/mL,8 µg/mL,8 µg/mL,64 µg/mL,16 µg/mL,32 µg/mL,16 µg/mL,64 µg/mL,64 µg/mL,4 h,0.031 to 4 µg/mL,49 µM,
